The nature of data set [1]: Evaluation 1: 20-μm pattern line width of transparent photosensitive composition. Conditions: transparent composition, initiator 0.4 mmol.
The nature of data set [2]: Absorption coefficient (absorbance of 0.001% solution in tetrahydrofuran). Format: physicochemical. A digest of the protocol: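 Absorbance of a 0.001% (wt/vol) solution in tetrahydrofuran recorded by spectrophotometer. Absorption maximum wavelength (λmax) taken from the spectrum within 280–400 nm.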
Where [3] appears, read: 0.001% (wt/vol) solution in tetrahydrofuran.

On to `CCCC1(CCC)c2cc(C(=O)c3ccccc3C)ccc2-c2ccc(/C(C)=N/OC(C)=O)cc21` [Compound 4], for which the “20-μm pattern line width” value in data set [1] (exposure energy quantity 10 mJ/cm^2) is listed as 19.4; in data set [1] (exposure energy quantity 20 mJ/cm^2), 20.0; in data set [1] (exposure energy quantity 40 mJ/cm^2) it was 21.3; in data set [1] (exposure energy quantity 60 mJ/cm^2) it was 22.1; in data set [1] (exposure energy quantity 80 mJ/cm^2), 22.4. Besides, in data set [2] (0.001% (wt/vol) in tetrahydrofuran, from 280 nm to 400 nm), the “Λ max (absorption maximum wavelength)” value came out at 330.5 nm. Further, in data set [2] (setting [3]), the “Absorption coefficient at 365 nm” value is 2.2 mL/mg/cm. Moreover, the “Absorption coefficient at Λ max” value in data set [2] (setting [3]) worked out at 85.7 mL/mg/cm.

The record behind these values is US9684238B2, “Fluorene-type compound, photopolymerization initiator comprising said fluorene-type compound, and photosensitive composition containing said photopolymerization initiator” (TOKYO OHKA KOGYO CO., LTD., priority 2012, dated 2017).
